Here are results for twelve compounds from patent US8178727B2, “Bis(arylmethylidene)acetone compound, anti-cancer agent, carcinogenesis-preventive agent, inhibitor of expression of Ki-Ras, ErbB2, c-Myc and Cycline D1, β-catenin-degrading agent, and p53 expression enhancer” (National University Corporation Tohoku University, priority 2005, dated 2012).

A word on the IC50: it is the concentration at which inhibition is half-maximal. For orientation: melting point means the temperature, or range, at which the solid turns liquid.

One data set has as its system β-catenin. Briefly: Western blot of β-catenin degrading activity. It counts as cell-based, human. The conditions noted are these: FIG. 9. How it is done:
Western-blot analysis was used to investigate effects on the expression of oncogene products, ErbB2, c-Myc, and Cyclin D1, whose activity is enhanced in a variety of cancer cells, and to investigate the activity of degrading β-catenin, which plays an important role in the initial stages of carcinogenesis to the formation and development of tumors.
(§1) Western-blot analysis was performed in the following manner:
(§2) After HCT116 cells were treated with each test compound, plate-adhered cells were recovered along with cells suspended in supernatants, centrifuged, and pelleted. The cells were then lysed with a lysis solution (40 mM Tris-HCl, 1% Triton X-100, 2 mM MgCl2) supplemented with 200-μM phenylmethanesulfonyl fluoride (PMSF), 500-μM benzamidine, and 1-μg/mL leupeptin. After the mixture was allowed to stand on ice for 30 minutes, it was centrifuged for 10 minutes at 4° C. and 10000×g, and supernatants were recovered. To the resultant supernatant was added equimolarly 2× sample buffer (0.1 M Tris-HCl (pH 6.8), 4% SDS, 20% glycerol, and 12% β-mercaptoethanol), and the mixture was shaken for 3 minutes at 4° C., then heated to 95° C. for 4 minutes, and then stored at −20° C. until use. The cell lysates were phoresed on 8% SDS-PAGE, transferred to a Hybond-P membrane (Amersham Biosciences), and made to react with various monoclonal antibodies described below.
(§3) Monoclonal antibodies: anti-actin antibody (A2066, Sigma Aldrich), anti-β-catenin antibody (6101 53, BD-transduction Laboratories), anti-p53 antibody (FL393: sc-6243HRP), anti-cyclin D1 antibody (M-20: sc-718), anti-c-Myc antibody (9E10: sc-40), anti-k-Ras-2B antibody (C-19: sc-521), and anti-c-ErbB2 antibody (A0485, DAKO Cytomation).
(A western blot detects proteins with antibodies after separation by electrophoresis.)

For the next data set, the system named is colon-cancer cells. Briefly: Growth inhibition compared with anti-cancer agents 5-FU, CPT11, CDDP (FIG. 6). The data set is classed as cell-based, human. Here is the method:
(§4) The inhibitory efficacy of bis(arylmethylidene)-acetones on the development and growth of malignant tumor cells was examined. Curcumin and bis(arylmethylidene)-acetone compounds were dissolved in DMSO to obtain 50 mM compound solutions for storage. Sixteen human cancer cell lines (HCT116, DLD-1, SW620. LK87, PC3, MCF7, PK9, HuCCT-1, SH10TC, GCIY, G361, 8505c, HepG2, A431, ACHN, OVK18) were obtained from the Medical Cellular Resources Center of the Institute of Development, Aging, and Cancer at Tohoku University, Japan. These cells were cultured at 37° C. under 5% CO2 conditions using as a culture medium RPMI1640 (Sigma Aldrich) supplemented with 10% fetal bovine serum and kanamycin (Wako Pure Chemical Industries: final concentration, […]).
(§5) Each cell line was placed on a 96-well microtiter plate at a cell density of 2500 to 5000 cells/100 μL/well in accordance with the growth rate of the cell line. After cell cultivation for 24 hours, […] medium containing each compound was added. The final concentration of each test compound is 0, 0.1, 0.25, 0.5, 1, 2.5, 5, 10, 25, 50, and 100 μM (11 levels). The maximum final concentration of DMSO used as a solvent was 1%. After culturing for 96 hours, the medium was aspirated away, followed by washing with PBS. Next, 100 μL of a medium containing a solution of Cell Counting Kit 8 at 1/10 (v/v) was added. Culturing was then continued for one hour. Thereafter, each optical absorbance at 450 nm (620 nm background) was measured with an MPR-A4i microplate reader (Tosoh, Japan). A curve of the inhibition of cell growth was constructed using the measured optical absorbances.
Stored solutions of three anti-cancer agents: 5-FU, CDDP, and CPT11, prepared beforehand (1 mM), were suitably diluted prior to use, and also added to culture media.

The test system of a further data set is HCT116 cells. Description: Cell growth inhibition (Cell Counting Kit 8, Wst-8), 96 h exposure. The data set is classed as cell-based. The settings on record: Homo sapiens, HCT-116, HCT116 colon cancer cells. Here is the method:
as §4
(§6) Three human colon-cancer cell lines (DLD-1, HCT116, SW620) were used in screening for cell growth inhibitory efficacy. The test compounds (bis(arylmethylidene)-acetones) were added to the culture media at the target concentrations, and exposure to the compounds was then continued for 96 hours in order to investigate not only acute cell damages but also effects on the cells, involving intracellular metabolic responses and others. The cell growth inhibitory efficacy was then evaluated with Cell Counting Kit 8 (Wst-8 Test, Dojindo Laboratories, Japan). In this analysis method, tetrazolium salt Wst-8 is degraded by reduced form nicotinamide adenine dinucleotide (nicotinamide adenine dinucleotide H; NADH). The activity of NADH is maintained only inside viable cells, and Wst-8 becomes colored upon degradation. The optical absorbance at 450 nm is measured, whereby the number of viable cells can be indirectly estimated.
as §5
Background: Tetrazolium dyes change colour on reduction, which living cells bring about.

For a further data set, the system named is SW620 cells. The data set is described as above. The conditions noted are these: Homo sapiens, SW-620, SW620 colon cancer cells. It counts as cell-based. How it is done: as §4, §6, §5
A further data set deals with DLD-1 cells. The description is as above. The data set is classed as cell-based. The settings on record: Homo sapiens, DLD-1 colon cancer cells. How it is done: as §4, §6, §5
Data set [1] concerns A431, ACHN, and HepG2 cells. Briefly: Growth inhibition compared with conventional anti-cancer agents (FIG. 6). It counts as cell-based, human. How it is done: as §4
as §5, with “After culturing for 96 hours, the medium was aspirated away, followed by washing with PBS. Next, 100 μL of a medium containing a solution of Cell Counting Kit 8 at 1/10 (v/v) was added. Culturing was then continued for one hour.” left out, “absorbances. […]” for “absorbances.”

The test system of data set [2] is cell lines derived from stomach, lung, breast, ovarian, prostate, pancreatic, bile duct, thyroid cancer and melanoma. Description: Growth inhibition compared with 5-FU, CPT11, CDDP in cell lines of other cancers (FIG. 6). The data set is classed as cell-based, human. The settings on record: cell lines from a variety of other cancers. Here is the method: as §4
as §5, with “After culturing for 96 hours, the medium was aspirated away, followed by washing with PBS. Next, 100 μL of a medium containing a solution of Cell Counting Kit 8 at 1/10 (v/v) was added. Culturing was then continued for one hour.” left out, “absorbances. […]” for “absorbances.”

The test system of a further data set is Apc580D mice. Briefly: Survival in familial adenomatous polyposis mouse model. It counts as in vivo. From the text:
Familial adenomatous polyposis (FAP) is the most appropriate model for considering the multistage process of carcinogenesis in colon cancer. The APC gene is a causative gene in this illness. This gene is a tumor suppressor gene and is linked to the degradation of the β-catenin gene product. The FAP mouse model Aoc580D (Apc580D/+mice, wherein a mutation was introduced into the mouse Apc gene by homologous genetic recombination) is heterozygous for a genetic mutation in which codon 580 of the APC gene is a stop codon (i.e., the Apc gene product is truncated at codon 580). These mice present hundreds of polyps in the gastrointestinal tract in the same manner as human FAP. […] Reference: Shibata H. et al., Science, 278, pp. 120-123 “Rapid colorectal adenoma formation initiated by conditional targeting of the Apc gene,” 1997.
Analysis was performed on therapeutic models (in which administration was initiated around the age of 8 weeks, when polyposis had already been observed) and prophylactic models (in which administration was initiated around the age of 4 weeks, when polyposis had not been observed) of carcinogenesis in the colon. Apc580D mice (2 animals) given daily an oral intake of HFD35 alone at a dose of 5 g were used as a control.

Another data set concerns p53. Description: Western blot of p53 gene product expression. The data set is classed as cell-based, human. The conditions noted are these: FIG. 11. How it is done:
as §1, §2, §3
Curcumin is known to have activity in degrading p53 gene products. Degradation, genetic expression reduction, instability, or other deficiencies of the tumor suppressor gene p53 gene products, result in disadvantageous conditions as concerns cell malignancy and tendency to become cancerous.

For another data set, the system named is C57BL/6J mice. Description: In vivo toxicity, mixed feed in high-fat diet. The settings on record: oral, 0.1% (w/w) in high-fat diet HFD35, 5 mg/day, more than 120 days. Also on record: species or system mouse. Here is the method: The synthetic compounds of the present invention are derived from curcumin, which is originally a food item. […] As a further test for in vivo toxicity, inbred C57BL/6J mice received daily an oral intake of 5 g of mixed feed (test compound dose: 5 mg/day) wherein each test compound was admixed at 0.1% (weight/weight) with a high-fat diet (HFD35, CLEA Japan).

The test system of data set [3] is primary cultured hepatic cells (hNHeps). Description: Toxicity test on normal cells. The data set is classed as cell-based. The settings on record: FIG. 13.

SMILES strings stand for the structures.

Turning to `COc1cc(/C=C/C(=O)/C=C/c2cc(OC)c(OC)c(OC)c2)cc(OC)c1OC` [GO-Y016, (1E,4E)-1,5-bis-(3,4,5-trimethoxyphenyl)penta-1,4-dien-3-one], the “β-catenin-degrading activity compared with BDMPP” value in the data set on β-catenin is listed as “not”. The “growth inhibitory activity relative to 5-FU, CPT11 and CDDP” value in the data set with colon-cancer cells is on record as “much stronger”. For the same compound, the IC50 came to 250 nM with HCT116 cells, 200 nM in the data set with SW620 cells and 250 nM with DLD-1 cells. Besides, in data set [1], the “effect relative to conventional anti-cancer agents” value is on record as “do not exert biological effects surpassing conventional anti-cancer agents”. The “anti-cancer activity relative to 5-FU, CPT11, and CDDP” value in data set [2] is reported as “strong anti-cancer activity”.
`COc1ccc(/C=C/C(=O)/C=C/c2ccc(OC)c(O)c2)cc1O` [GO-Y023, (1E,4E)-1,5-bis-(3-hydroxy-4-methoxyphenyl)penta-1,4-dien-3-one]: the melting point lay in the range of 195 to 197 °C.
On the same count and under the same terms, the value for `O=C(/C=C/c1ccc2ccccc2c1)/C=C/c1ccc2ccccc2c1` [GO-Y011, (1E,4E)-1,5-dinaphthalen-2-yl-penta-1,4-dien-3-one] was 244 to 246 °C; that for `COc1cc(Br)cc(/C=C/C(=O)/C=C/c2cc(Br)cc(OC)c2)c1` [GO-033, (1E,4E)-1,5-bis-(3-bromo-5-methoxyphenyl)penta-1,4-dien-3-one] was 181 to 183 °C; that for `COc1cc(/C=C/C(=O)/C=C/c2cc(OC)c(OCCO)c(OC)c2)cc(OC)c1OCCO` [GO-Y044, (1E,4E)-1,5-bis-[4-(2-hydroxyethoxy)-3,5-dimethoxyphenyl]penta-1,4-dien-3-one] was 133 to 135 °C.
As for `COc1cc(/C=C/C(=O)/C=C/c2cc(OC)c(O)c(OC)c2)cc(OC)c1O` [GO-Y026, (1E,4E)-1,5-bis-(4-hydroxy-3,5-dimethoxyphenyl)penta-1,4-dien-3-one], the melting point was 166 to 168 °C.
Take `COCOc1c(OC)cc(/C=C/C(=O)/C=C/c2cc(OC)c(OCOC)c(OC)c2)cc1OC` [GO-Y031, (1E,4E)-1,5-bis-(3,5-dimethoxy-4-methoxymethoxyphenyl)penta-1,4-dien-3-one]: the “average survival, anti-carcinogenically prophylactic model (still alive)” value in the data set with Apc580D mice (oral 5 mg/day in HFD35, started around 4 weeks of age) is at least 110.0 days. In addition, the “survival time, therapeutic model” value in the data set on Apc580D mice (oral 5 mg/day in HFD35, started around 8 weeks of age, average where several mice) stood at 148.0 days. Also, in the data set with β-catenin, the “concentration at which β-catenin degrading activity is displayed” value came out at 1 µM and the “β-catenin-degrading activity compared with BDMPP” value is “equal to or greater than that of BDMPP”. In the data set on p53, the “expression of p53 after 30 hours” value is “enhanced expression of p53” and the “transient drop in expression of p53 6 to 12 hours after administration” value is recorded as “not seen”. For the same compound, in the data set on colon-cancer cells, the “growth inhibitory activity relative to 5-FU, CPT11 and CDDP” value is reported as “much stronger”. Also, in the data set on HCT116 cells, 250 nM corresponded to half-maximal inhibition (IC50). In the data set on SW620 cells, this compound yielded a half-maximal inhibitory concentration (IC50) of 500 nM. In the data set with DLD-1 cells, this compound yielded an IC50 of 250 nM. For the same compound, in the data set with C57BL/6J mice, the “bodily abnormalities including weight loss” value is on record as “No bodily abnormalities, including weight loss, were observed”. Besides, the “effect relative to conventional anti-cancer agents” value in data set [1] was “do not exert biological effects surpassing conventional anti-cancer agents”. Further, in [3], the “cytotoxicity to normal cells” value was “non-cytotoxic” and the “growth inhibition on normal cells” value is recorded as “no growth inhibition was observed”. Further, the “anti-cancer activity relative to 5-FU, CPT11, and CDDP” value in data set [2] is recorded as “strong anti-cancer activity”.
On to `O=C(/C=C/c1cc(O)cc(O)c1)/C=C/c1cc(O)cc(O)c1` (hydrate or solvate) [GO-Y038, (1E,4E)-1,5-bis-(3,5-dihydroxyphenyl)penta-1,4-dien-3-one], for which the melting point is 298 to 300 °C (dec.).
The same measure, in the same setting: the value for `COCCOCOc1c(OC)cc(/C=C/C(=O)/C=C/c2cc(OC)c(OCOCCOC)c(OC)c2)cc1OC` [GO-Y039, (1E,4E)-1,5-bis-(3,5-dimethoxy-4-methoxyethoxymethoxyphenyl)penta-1,4-dien-3-one] was 61 to 63 °C; that for `C#CCOc1c(OC)cc(/C=C/C(=O)/C=C/c2cc(OC)c(OCC#C)c(OC)c2)cc1OC` [GO-Y048, (1E,4E)-1,5-bis-(3,5-dimethoxy-4-prop-2-ynyloxyphenyl)penta-1,4-dien-3-one] was 162 to 164 °C; that for `COc1cc(/C=C/C(=O)/C=C/c2cc(OC)c(OCCN=[N+]=[N-])c(OC)c2)cc(OC)c1OCCN=[N+]=[N-]` [GO-Y065, (1E,4E)-1,5-bis-[4-(2-azidoethoxy)-3,5-dimethoxyphenyl]penta-1,4-dien-3-one] was 107 to 109 °C.
Still for that read-out and setting: the value for `C#CCOc1c(OC)cc(/C=C/C(=O)/C=C/c2cc(OC)c(OC)c(OC)c2)cc1OC` [GO-Y060, (1E,4E)-1-(3,5-dimethoxy-4-prop-2-ynyloxyphenyl)-5-(3,4,5-trimethoxyphenyl)penta-1,4-dien-3-one] was 118 to 120 °C.
